# Measurements as given in patent publication US4477443A, “Tylosin derivatives, their preparation and pharmaceutical compositions containing them” (Zaidan Hojin Biselbutsu Kagaku Kenkyu Kai (Microbial …, priority 1981, dated 1984).
# Read-outs that look alike come from different tables or passages of the source.
# Legend:
# Format in all cases: cell-based
# [1] = test system: Staph. aureus 193; test: antimicrobial activity (MIC), Table I; conditions: Staphylococcus aureus; Staph. aureus 193; read-out: MIC
# [2] = test system: Staph. aureus 209 P; test: antimicrobial activity (MIC), Table I; conditions: Staphylococcus aureus; Staph. aureus 209 P; read-out: MIC
# [3] = test system: Staph. aureus MS 9861; test: antimicrobial activity (MIC), Table I; conditions: Staphylococcus aureus, MS9861; Staph. aureus MS 9861; read-out: MIC
# [4] = test system: Sarcina lutea PCI 1001; test: antimicrobial activity (MIC), Table I; conditions: Micrococcus luteus, PCI1001; Sarcina lutea PCI 1001; read-out: MIC
# [5] = test system: B. subtilis NRRL B-558; test: antimicrobial activity (MIC), Table I; conditions: Bacillus subtilis, NRRLB558; B. subtilis NRRL B-558; read-out: MIC
# [6] = test system: Coryn. bovis 1810; test: antimicrobial activity (MIC), Table I; conditions: Corynebacterium bovis; Coryn. bovis 1810; read-out: MIC
# [7] = test system: E. coli NIHJ; test: antimicrobial activity (MIC), Table I; conditions: Escherichia coli; E. coli NIHJ; read-out: MIC
# [8] = test system: E. coli K-12; test: antimicrobial activity (MIC), Table I; conditions: Escherichia coli, K12; E. coli K-12; read-out: MIC
# [9] = test system: E. coli K-12 R-5; test: antimicrobial activity (MIC), Table I; conditions: Escherichia coli, K12R5; E. coli K-12 R-5; read-out: MIC
# [10] = test system: E. coli K-12 ML 1410; test: antimicrobial activity (MIC), Table I; conditions: Escherichia coli, K12ML1410
# [11] = test system: E. coli K-12 LA 290 R 55; test: antimicrobial activity (MIC), Table I; conditions: Escherichia coli
# [12] = test system: Kleb. pneumoniae PCI 602; test: antimicrobial activity (MIC), Table I; conditions: Klebsiella pneumoniae, PCI602; Kleb. pneumoniae PCI 602; read-out: MIC
# [13] = test system: Shigella dysenteriae JS 11910; test: antimicrobial activity (MIC), Table I; conditions: JS11910
# [14] = test system: Sal. enteritidis 1891; test: antimicrobial activity (MIC), Table I; conditions: Salmonella enterica; Sal. enteritidis 1891; read-out: MIC
# [15] = test system: Pro. vulgaris OX-19; test: antimicrobial activity (MIC), Table I; conditions: Proteus vulgaris, OX19
# [16] = test system: B. subtilis ATCC 6633; test: antimicrobial activity (MIC), Table II; conditions: Bacillus subtilis, ATCC6633; B. subtilis ATCC 6633; read-out: MIC
# [17] = test system: B. cereus; test: antimicrobial activity (MIC), Table II; conditions: Bacillus cereus; B. cereus; read-out: MIC
# [18] = test system: Staph. aureus ATCC 6538P; test: antimicrobial activity (MIC), Table II; conditions: Staphylococcus aureus, ATCC6538P
# [19] = test system: Staph. aureus KC-11; test: antimicrobial activity (MIC), Table II; conditions: Staphylococcus aureus, KC11
# [20] = test system: Staph. aureus 226; test: antimicrobial activity (MIC), Table II; conditions: Staphylococcus aureus
# [21] = test system: Staph. epidermidis IID 866; test: antimicrobial activity (MIC), Table II; conditions: Staphylococcus epidermidis, IID866
# [22] = test system: Staph. epidermidis IID 886; test: antimicrobial activity (MIC), Table II; conditions: Staphylococcus epidermidis, IID886
# [23] = Pro. vulgaris OX-19, read-out: MIC
# [24] = Staph. aureus ATCC 6538P, read-out: MIC
# [25] = Staph. aureus KC-11, read-out: MIC
# [26] = Staph. aureus 226, read-out: MIC
smiles,measurement,setting,value
"CCC1OC(=O)CC(O)C(C)C(OC2OC(C)C(O)C(N(C)C)C2O)C(CC=O)CC(C)C(=O)C=CC(C)=CC1CN(CC)CC (centres unmarked) [Example 5, 23-deoxy-23-diethylamino mycaminosyl tylonolide]",MIC,[1],0.78 µg/mL
same,MIC,[2],0.78 µg/mL
same,MIC,[3],12.5 µg/mL
same,MIC,[4],< 0.2 µg/mL
same,MIC,[5],0.78 µg/mL
same,MIC,[6],0.78 µg/mL
same,MIC,[7],1.56 µg/mL
same,MIC,[8],1.56 µg/mL
same,MIC,[9],1.56 µg/mL
same,MIC,[10],3.12 µg/mL
same,MIC,[11],3.12 µg/mL
same,MIC,[12],1.56 µg/mL
same,MIC,[13],1.56 µg/mL
same,MIC,[14],3.12 µg/mL
same,MIC,[15],1.56 µg/mL
"CCCN(CCC)CC1C=C(C)C=CC(=O)C(C)CC(CC=O)C(OC2OC(C)C(O)C(N(C)C)C2O)C(C)C(O)CC(=O)OC1CC (centres unmarked) [Example 6, 23-deoxy-23-dipropylaminomycaminosyl tylonolide]",MIC,[1],< 0.2 µg/mL
same,MIC,[2],< 0.2 µg/mL
same,MIC,[3],1.56 µg/mL
same,MIC,[4],< 0.2 µg/mL
same,MIC,[5],0.39 µg/mL
same,MIC,[6],< 0.2 µg/mL
same,MIC,[7],0.78 µg/mL
same,MIC,[8],1.56 µg/mL
same,MIC,[9],1.56 µg/mL
same,MIC,[10],3.12 µg/mL
same,MIC,[11],1.56 µg/mL
same,MIC,[12],0.78 µg/mL
same,MIC,[13],0.39 µg/mL
same,MIC,[14],1.56 µg/mL
same,MIC,[15]; [23],1.56 µg/mL
"CCC1OC(=O)CC(O)C(C)C(OC2OC(C)CC(N(C)C)C2O)C(CC=O)CC(C)C(=O)C=CC(C)=CC1CN(C)C (centres unmarked) [Example 9, 23,4'-dideoxy-23-dimethylaminomycaminosyl tylonolide]",MIC,[1],< 0.2 µg/mL
same,MIC,[2],< 0.2 µg/mL
same,MIC,[3],0.39 µg/mL
same,MIC,[4],0.2 µg/mL
same,MIC,[5],< 0.2 µg/mL
same,MIC,[6],0.2 µg/mL
same,MIC,[7],< 0.2 µg/mL
same,MIC,[8],0.39 µg/mL
same,MIC,[9],0.39 µg/mL
same,MIC,[10],0.39 µg/mL
same,MIC,[11],0.39 µg/mL
same,MIC,[12],0.2 µg/mL
same,MIC,[13],< 0.2 µg/mL
same,MIC,[14],< 0.2 µg/mL
same,MIC,[15],0.78 µg/mL
"CCC1OC(=O)CC(O)C(C)C(OC2OC(C)CC(N(C)C)C2O)C(CC=O)CC(C)C(=O)C=CC(C)=CC1CN(CC)CC (centres unmarked) [Example 10, 23,4'-dideoxy-23-diethylaminomycaminosyl tylonolide]",MIC,[1],< 0.2 µg/mL
same,MIC,[2],< 0.2 µg/mL
same,MIC,[3],0.78 µg/mL
same,MIC,[4],< 0.2 µg/mL
same,MIC,[5],< 0.2 µg/mL
same,MIC,[6],< 0.2 µg/mL
same,MIC,[7],< 0.2 µg/mL
same,MIC,[8],0.39 µg/mL
same,MIC,[9],0.39 µg/mL
same,MIC,"[10]; E. coli K-12 ML 1410, read-out: MIC",0.39 µg/mL
same,MIC,[11],0.39 µg/mL
same,MIC,[12],0.2 µg/mL
same,MIC,[13],< 0.2 µg/mL
same,MIC,[14],0.39 µg/mL
same,MIC,[15]; [23],0.39 µg/mL
"CCC1OC(=O)CC(O)C(C)C(OC2OC(C)C(O)C(N(C)C)C2O)C(CC=O)CC(C)C(=O)C=CC(C)=CC1CN1CCCCC1 (centres unmarked) [Example 13, 23-deoxy-23-piperidinomycaminosyl tylonolide]",MIC,[1],0.39 µg/mL
same,MIC,[2],0.39 µg/mL
same,MIC,[3],0.78 µg/mL
same,MIC,[4],< 0.2 µg/mL
same,MIC,[5],0.39 µg/mL
same,MIC,[6],< 0.2 µg/mL
same,MIC,[7],0.78 µg/mL
same,MIC,[8],1.56 µg/mL
same,MIC,[9],1.56 µg/mL
same,MIC,[10],3.12 µg/mL
same,MIC,[11],1.56 µg/mL
same,MIC,[12],0.39 µg/mL
same,MIC,[13],< 0.2 µg/mL
same,MIC,[14],0.78 µg/mL
same,MIC,[15]; [23],1.56 µg/mL
"CCC1OC(=O)CC(O)C(C)C(OC2OC(C)CC(N(C)C)C2O)C(CC=O)CC(C)C(=O)C=CC(C)=CC1COC(=O)CN(C)C (centres unmarked) [Example 51, 23-O-dimethylaminoacetyl-4'-deoxymycaminosyltylonolide]",MIC,[16],0.78 µg/mL
same,MIC,[17],0.39 µg/mL
same,MIC,[18]; [24],0.78 µg/mL
same,MIC,[19]; [25],0.78 µg/mL
same,MIC,[20]; [26],0.78 µg/mL
same,MIC,[21],0.39 µg/mL
"CCC1OC(=O)CC(O)C(C)C(OC2OC(C)CC(N(C)C)C2O)C(CC=O)CC(C)C(=O)C=CC(C)=CC1COC(=O)CN1CCCC1 (centres unmarked) [Example 52, 23-O-pyrrolidinoacetyl-4'-deoxymycaminosyl tylonolide]",MIC,[16],1.56 µg/mL
same,MIC,[17],1.56 µg/mL
same,MIC,[18]; [24],0.78 µg/mL
same,MIC,[19]; [25],0.78 µg/mL
same,MIC,[20]; [26],0.78 µg/mL
same,MIC,[21],0.78 µg/mL
"CCC1OC(=O)CC(O)C(C)C(OC2OC(C)CC(N(C)C)C2O)C(CC=O)CC(C)C(=O)C=CC(C)=CC1COC(=O)CSc1ccccn1 (centres unmarked) [Example 53, 23-O-(pyridine-2-thioyl)acetyl-4'-deoxymycaminosyl tylonolide]",MIC,[16],0.39 µg/mL
same,MIC,[17],≤ 0.2 µg/mL
same,MIC,[18],0.39 µg/mL
same,MIC,[19],0.39 µg/mL
same,MIC,[20]; 226,0.39 µg/mL
same,MIC,[22],≤ 0.2 µg/mL
"CCC1OC(=O)CC(O)C(C)C(OC2OC(C)CC(N(C)C)C2O)C(CC=O)CC(C)C(=O)C=CC2(C)OC2C1CN(C)C (centres unmarked) [Example 61, 23,4'-dideoxy-23-dimethylamino-12,13-epoxymycaminosyl tylonolide]",MIC,[16],0.78 µg/mL
same,MIC,[17],≤ 0.2 µg/mL
same,MIC,[18]; [24],0.78 µg/mL
same,MIC,[19]; [25],0.78 µg/mL
same,MIC,[20]; [26],1.56 µg/mL
same,MIC,[22],0.78 µg/mL
"CCC1OC(=O)CC(O)C(C)C(OC2OC(C)CC(N(C)C)C2O)C(CC=O)CC(C)C(=O)C=CC(C)=CC1CN(C)CCO (centres unmarked) [Example 66, 23,4'-dideoxy-23-N-(2-hydroxyethyl)methylaminomycaminosyl tylonolide]",MIC,[16],1.56 µg/mL
same,MIC,[17],≤ 0.2 µg/mL
same,MIC,[18]; [24],0.78 µg/mL
same,MIC,[19]; [25],1.56 µg/mL
same,MIC,[20]; [26],1.56 µg/mL
same,MIC,[22],0.78 µg/mL
"CCC1OC(=O)CC(O)C(C)C(OC2OC(C)CC(N(C)C)C2O)C(CC=O)CC(C)C(=O)C=CC(C)=CC1CN(CC)CCO (centres unmarked) [Example 67, 23,4'-dideoxy-23-N-ethyl(2-hydroxyethyl)aminomycaminosyl tylonolide]",MIC,[16],0.78 µg/mL
same,MIC,[17],0.39 µg/mL
same,MIC,[18]; [24],0.78 µg/mL
same,MIC,[19]; [25],0.78 µg/mL
same,MIC,[20]; [26],0.78 µg/mL
same,MIC,[22],0.78 µg/mL
"CCC1OC(=O)CC(O)C(C)C(OC2OC(C)CC(N(C)C)C2O)C(CC=O)CC(C)C(=O)C=CC(C)=CC1CN(CC)CC(F)(F)F (centres unmarked) [Example 74, 23,4'-Dideoxy-23-N-(2,2,2-trifluoroethyl)ethylaminomycaminosyl tylonolide]",MIC,[16],0.78 µg/mL
same,MIC,[17],0.78 µg/mL
same,MIC,[18]; [24],0.78 µg/mL
same,MIC,[19]; [25],0.78 µg/mL
same,MIC,[20]; [26],0.78 µg/mL
same,MIC,[22],0.78 µg/mL
"CCC1OC(=O)CC(O)C(C)C(OC2OC(C)C(O)C(N(C)C)C2O)C(CC=O)CC(C)C(=O)C=CC(C)=CC1CN1CCCCC1C (centres unmarked) [Example 87, 23-deoxy-23-(2-methylpiperidino)mycaminosyl tylonolide]",MIC,[16],0.78 µg/mL
same,MIC,[18]; [24],0.78 µg/mL
same,MIC,[19]; [25],0.78 µg/mL
same,MIC,[20]; [26],0.78 µg/mL
same,MIC,[22],0.78 µg/mL
"CCC1OC(=O)CC(O)C(C)C(OC2OC(C)C(O)C(N(C)C)C2O)C(CC=O)CC(C)C(=O)C=CC(C)=CC1CN1CCCC(C)C1 (centres unmarked) [Example 88, 23-deoxy-23-(3-methylpiperidino)mycaminosyl tylonolide]",MIC,[16],0.78 µg/mL
same,MIC,[18]; [24],0.78 µg/mL
same,MIC,[19]; [25],0.78 µg/mL
same,MIC,[20]; [26],0.78 µg/mL
same,MIC,[22],0.39 µg/mL
"CCC1OC(=O)CC(O)C(C)C(OC2OC(C)C(O)C(N(C)C)C2O)C(CC=O)CC(C)C(=O)C=CC(C)=CC1CN1CCC(C)CC1 (centres unmarked) [Example 89, 23-deoxy-23-(4-methylpiperidino)mycaminosyl tylonolide]",MIC,[16],0.78 µg/mL
same,MIC,[18]; [24],0.78 µg/mL
same,MIC,[19]; [25],0.78 µg/mL
same,MIC,[20]; [26],0.78 µg/mL
same,MIC,[22],0.78 µg/mL
"CCC1OC(=O)CC(O)C(C)C(OC2OC(C)C(O)C(N(C)C)C2O)C(CC=O)CC(C)C(=O)C=CC(C)=CC1CN1CCCCCCC1 (centres unmarked) [Example 90, 23-deoxy-23-heptamethyleneiminomycaminosyl tylonolide]",MIC,[16],0.39 µg/mL
same,MIC,[18],0.39 µg/mL
same,MIC,[19],0.39 µg/mL
same,MIC,[20]; 226,0.39 µg/mL
same,MIC,[22],0.39 µg/mL
"CCC1OC(=O)CC(O)C(C)C(OC2OC(C)CC(N(C)C)C2O)C(CC=O)CC(C)C(=O)C=CC(C)=CC1CNC1CC1 (centres unmarked) [Example 96, 23,4'-dideoxy-23-cyclopropylaminomycaminosyl tylonolide]",MIC,[16],0.78 µg/mL
same,MIC,[17],0.39 µg/mL
same,MIC,[18],0.39 µg/mL
same,MIC,[19]; [25],0.78 µg/mL
same,MIC,[20]; [26],0.78 µg/mL
same,MIC,[22],0.39 µg/mL
